# Laboratory results published in patent US4049829A, “Sulphur containing hydroxy aliphatic compounds” (Societe anonyme dite: Laboratoire L. Lafon, priority 1974, dated 1977).
# Counter-ions that a name gives are not always drawn.
# Tests used:
# mice = assay: Acute toxicity by oral dose, mice; format: in vivo
# From the text: (§1) The product is not toxic. The experiments relating to acute toxicity by oral dose for mice and rats have given evidence that there is no mortality amongst animals treated up to a dose of 5 g/kg.
# [1] = Overall activity from both experimental standards I and II; format: in vivo, Wistar rats; conditions: for product activity: of the order of
# Procedure: The hypolipaemiant properties of the CRL 40 122 have been studied in rats according to two different standard experiments:
# The experiment was conducted for two weeks on Wistar rats, subjected to a daily hyperlipidic diet at the dose of about 20 g for an animal of 150 g in average.
# The activity of the product studied was determined by comparison with normal control groups of rats and with groups of rats subjected to a hyperlipidic diet and not treated. For each dose of CRL 40 122 there were three groups of five animals each (control group, group only receiving the hyperlipidic diet, and treated group). The results obtained correspond to the average of each of the series. A very interesting activity of CRL 40 122 appeared at active doses of 10 mg to 50 mg/kg in rats subjected to a hyperlipidic diet (decrease from 64 to 34% of the rate of blood lipids according to dose; decrease of cholesterol from 68 to 41%).
# (§2) The experiment was carried out over five days on normal male Wistar rats. The animals, numbering 8 per dose of the product to be studied, were treated orally daily, the last feed taking place 3 hours before the animals were killed. Each series was divided into two groups of animals: one group killed after 3 days of experiment; the other group killed after 5 days of experiment.
# The results were determined by comparison with 8 normal rats subjected to the same experimental conditions and not treated.
# Overall these tests led to the following conclusions:
# 1. The two experimental standards, although very different give rise to a product activity of the order of: […]
# [2] = Solubility (stated with the preparation); format: physicochemical
# [3] = Human therapeutics: patients suffering from hyperlipaemia and hypercholesterolaemia; format: in vivo
# [4] = Experimental standard II: normal rats, five days oral treatment; format: in vivo, normal male Wistar rats; conditions: oral dose of 20 mg/kg, vs untreated normal rats
# Procedure: as §2, with “The hypolipaemiant properties of the CRL 40 122 have been studied in rats according to two different standard experiments: A study on normal Wistar rats (standard II). The experiment” for “The experiment”, “of experiment. The results were determined by comparison with 8 normal rats subjected to the same experimental conditions and not treated.” for “of experiment.”
# rats = assay: Acute toxicity by oral dose, rats; format: in vivo; conditions: up to a dose of 5 g/kg
# From the text: as §1
# [5] = Hypolipidic activity in rats on hyperlipidic diet (Table IV); format: in vivo; set-up: Burstein Test: unit not given here; conditions: for Total Cholesterol / Total Lipids / Burstein Test, % inhibition / Total Cholesterol, % inhibition / Total Lipids, % inhibition / Burstein Test: Table IV; for Burstein Test, % inhibition / Total Cholesterol, % inhibition / Total Lipids, % inhibition: normal = 100%, hyperlipidic = 0%
# From the text: In Table IV below the following results have been obtained.
# A -- in rats receiving a normal diet (percentage inhibition = 100%);
# B -- in rats receiving a hyperlipidic diet (percentage inhibition = 0%);
# C -- in rats receiving the same hyperlipidic diet B with a daily dose of 0.1 g/kg of a reference normolipidemiant LIPAVLON [ethyl-2-(p-chlorophenoxy)-2-methylpropionate; International name: CLOFIBRATE];
# D -- in rats receiving the same hyperlipidic diet B with a daily dose of 0.1 g/kg of a reference normolipidemiant ATHEROLIP [aluminium salt of 2-(p-chlorophenoxy)-2-methylpropionic acid];
# E -- in rats receiving the same hyperlipidic diet B with a daily dose of 0.1 g/kg of a reference normolipidemiant, LL 1558 [1,10-bis(2-hydroxyethyl-thio)decane];
# F -- in rats receiving the same hyperlipidic diet B with a daily dose 0.010 g/kg, 0.025 g/kg or 0.050 g/kg of CRL 40046.
# The averages of the tests effected on CRL 40 055 in three different doses and calculated comparatively to reference products corresponding to various experiments allow an activity of the product to be concluded as follows: […]
# [6] = total dose of 400 mg per day, capsules of 100 mg and 200 mg
# [7] = first experiment, hyperlipidic diet + product 0,1g/kg daily
# [8] = first experiment, hyperlipidic diet + product 0,050g/kg daily
# [9] = second experiment, hyperlipidic diet + product 0,025g/kg daily
# [10] = third experiment, hyperlipidic diet + product "010g/kg" daily
# [11] = second experiment, hyperlipidic diet + product 0,1g/kg daily
# [12] = third experiment, hyperlipidic diet + product 0,1g/kg daily
smiles,measurement,setting,value
"CC(CO)SCCCCCCCCCCSC(C)CO (racemic) [CRL 40 122, (±)-2,15-Dimethyl-3,14-dithia-1,16-hexadecanediol]",toxicity (in words),"mice; acute oral, mice and rats",not toxic
same,mortality,"mice; oral, mice, up to a dose of 5 g/kg",no mortality
same,appearance of activity (onset),[1],after the third day of treatment
same,product activity,[1]; dose of 10 mg/kg,~20%
same,product activity,[1]; dose of 20 mg/kg,~30%
same,product activity,[1]; dose of 50 mg/kg,~60%
same,solubility in water,[2],insoluble
same,use in human therapeutics (in words),[3]; capsules dosed at 100 mg and at 200 mg,used with success
same,hypercholesterolaemia,[3]; [6],decrease after several days of treatment
same,hyperlipaemia,[3]; [6],decrease after several days of treatment
same,decrease in cholesterol,[4],23%
same,decrease in total lipids,[4],31%
same,mortality,rats,no mortality
"CC(C)(Oc1ccc(Cl)cc1)C(=O)O [Atherolip, aluminium salt of 2-(p-chlorophenoxy)-2-methylpropionic acid]",Total Cholesterol,[5]; [7],2.08 g/L
same,Total Lipids,[5]; [7],6.8 g/L
same,"Burstein Test, % inhibition",[5]; [7],67%
same,"Total Cholesterol, % inhibition",[5]; [7],59%
same,"Total Lipids, % inhibition",[5]; [7],49%
"CC(C)(CO)SCCCCCCCCCCSC(C)(C)CO [CRL 40 055, 2,2,15,15-Tetramethyl-3,14-dithia-1,16-hexadecanediol]",Burstein Test,[5]; [8],64
same,Total Cholesterol,[5]; [8],2.29 g/L
same,Total Lipids,[5]; [8],7.45 g/L
same,"Burstein Test, % inhibition",[5]; [8],58%
same,"Total Cholesterol, % inhibition",[5]; [8],51%
same,"Total Lipids, % inhibition",[5]; [8],41%
same,Burstein Test,[5]; [9],82
same,Total Cholesterol,[5]; [9],2.43 g/L
same,Total Lipids,[5]; [9],8.06 g/L
same,"Burstein Test, % inhibition",[5]; [9],30%
same,"Total Cholesterol, % inhibition",[5]; [9],53%
same,"Total Lipids, % inhibition",[5]; [9],37%
same,Total Cholesterol,[5]; [10],3.81 g/L
same,Total Lipids,[5]; [10],11.3 g/L
same,"Burstein Test, % inhibition",[5]; [10],0%
same,"Total Cholesterol, % inhibition",[5]; [10],0%
same,"Total Lipids, % inhibition",[5]; [10],0%
same,activity (in words),[5]; dose of 0.010 g/kg,the activity appears to have completely disappeared
same,activity as compared with the reference products (in words),[5]; dose of 0.025 g/kg vs reference products at 0.1 g/kg,substantially constant activity as compared with the reference products
same,solubility in water,[2],insoluble
"OCCSCCCCCCCCSCCO [CRL 40 077, 1,8-Bis(2-hydroxyethyl-thio)-octane]",solubility in alcohol,[2],soluble
same,solubility in water,[2],insoluble
"OCCSCCCCCCSCCO [CRL 40 085, 1,6-Bis(2-hydroxyethyl-thio)-hexane]",solubility in alcohol,[2],soluble
same,solubility in water,[2],insoluble
"OCCSCCCCCCCCCSCCO [CRL 40 116, 1,9Bis(2-hydroxyethylthio)-nonane]",solubility in alcohol,[2],soluble
same,solubility in water,[2],insoluble
"OCCSCCCCCCCSCCO [CRL 40 120, 1,7-Bis(2-hydroxyethyl-thio)-heptane]",solubility in alcohol,[2],soluble
same,solubility in water,[2],insoluble
"OCC(O)CSCCCCCCCCCCSCC(O)CO (centres unmarked) [CRL 40 155, 1,10-Bis(2,3-dihydroxypropyl-thio)decan]",solubility in water,[2],insoluble
"OCCC(CO)SCCCCCCCCCCSC(CO)CCO (centres unmarked) [CRL 40 176, 1,18-Dihydroxy-3,16-di(hydroxymethylene)-4,15-dithia-octadecane]",solubility in water,[2],insoluble
"CC(CO)SCCCCCCCCCSC(C)CO (centres unmarked) [CRL 40 193, 2,14-Dimethyl-3,13-dithia-1,15-pentadecanediol]",solubility in water,[2],insoluble
"OCCSCCCCCCCCCCCSCCO [CRL 40 194, 1,11-Bis-(2-hydroxyethyl-thio)-undecane]",solubility in water,[2],insoluble
"OCCSCCCCCCCCCCSCCO [LL 1558, 1,10-bis(2-hydroxyethyl-thio)decane]",Burstein Test,[5]; [11],38
same,Total Cholesterol,[5]; [11],1.33 g/L
same,Total Lipids,[5]; [11],5.1 g/L
same,"Burstein Test, % inhibition",[5]; [11],87%
same,"Total Cholesterol, % inhibition",[5]; [11],85%
same,"Total Lipids, % inhibition",[5]; [11],82%
same,Burstein Test,[5]; [12],37
same,Total Cholesterol,[5]; [12],1.33 g/L
same,Total Lipids,[5]; [12],4.5 g/L
same,"Burstein Test, % inhibition",[5]; [12],85%
same,"Total Cholesterol, % inhibition",[5]; [12],70%
same,"Total Lipids, % inhibition",[5]; [12],77%
"CCOC(=O)C(C)(C)Oc1ccc(Cl)cc1 [Lipavlon, ethyl-2-(p-chlorophenoxy)-2-methylpropionate]",Total Cholesterol,[5]; [7],2.47 g/L
same,Total Lipids,[5]; [7],7.75 g/L
same,"Burstein Test, % inhibition",[5]; [7],49%
same,"Total Cholesterol, % inhibition",[5]; [7],46%
same,"Total Lipids, % inhibition",[5]; [7],37%
same,Total Cholesterol,[5]; [11],3 g/L
same,Total Lipids,[5]; [11],9.2 g/L
same,"Burstein Test, % inhibition",[5]; [11],27%
same,"Total Cholesterol, % inhibition",[5]; [11],36%
same,"Total Lipids, % inhibition",[5]; [11],20%
same,Total Cholesterol,[5]; [12],1.58 g/L
same,Total Lipids,[5]; [12],7.3 g/L
same,"Burstein Test, % inhibition",[5]; [12],25%
same,"Total Cholesterol, % inhibition",[5]; [12],60%
same,"Total Lipids, % inhibition",[5]; [12],22%
